Test results published in patent US20210380929A1, “METHODS, APPARATUS AND KITS FOR BACTERIAL CELL LYSIS” (TECHNISCHE UNIVERSITÄT WIEN, priority 2018, published 2021).

System: Enterococcus faecalis type strain NCTC 775
Type: cell-based

Compound | 23S rRNA gene copies in 2.5 μl of the DNA extracts | cell lysis efficiency with varying IL concentration
CC(=O)O.CCn1cc[n+](C)c1 [[C2mim]OAc, 1-Ethyl-3-methylimidazolium acetate] | ~6.48±0.02 | almost steadily decreased with its respective concentration
CCCCCC(=O)[O-].C[N+](C)(C)CCO [[Cho]Hex, Choline hexanoate] | ~6.49±0.11 | slightly improved towards a concentration of 50% (w/v), only decreasing with lower concentrations of 30% (w/v) and 10% (w/v)
